# ChEMBL document CHEMBL1201862, “PubChem BioAssay data set” (2004)
# Calls of active or inactive are those of the source.
# Assays:
# Streptococcus = assay: Group A Streptococcus viability loss, dose response, counter-screen for streptokinase expression inhibitor project, luminescence, BacTiterGlo (AID 1915); type: functional, organism-based;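 note: potency for reduction of bacterial viability or growth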
# Hexokinase HKDC1 = target: T1, Hexokinase HKDC1 (Homo sapiens, UniProt Q2TB90); assay: HKDC1 hexokinase activators, dose response, biochemical, W721R variant (AID 504730); type: functional
# T1 sequence (Q2TB90 whole entry): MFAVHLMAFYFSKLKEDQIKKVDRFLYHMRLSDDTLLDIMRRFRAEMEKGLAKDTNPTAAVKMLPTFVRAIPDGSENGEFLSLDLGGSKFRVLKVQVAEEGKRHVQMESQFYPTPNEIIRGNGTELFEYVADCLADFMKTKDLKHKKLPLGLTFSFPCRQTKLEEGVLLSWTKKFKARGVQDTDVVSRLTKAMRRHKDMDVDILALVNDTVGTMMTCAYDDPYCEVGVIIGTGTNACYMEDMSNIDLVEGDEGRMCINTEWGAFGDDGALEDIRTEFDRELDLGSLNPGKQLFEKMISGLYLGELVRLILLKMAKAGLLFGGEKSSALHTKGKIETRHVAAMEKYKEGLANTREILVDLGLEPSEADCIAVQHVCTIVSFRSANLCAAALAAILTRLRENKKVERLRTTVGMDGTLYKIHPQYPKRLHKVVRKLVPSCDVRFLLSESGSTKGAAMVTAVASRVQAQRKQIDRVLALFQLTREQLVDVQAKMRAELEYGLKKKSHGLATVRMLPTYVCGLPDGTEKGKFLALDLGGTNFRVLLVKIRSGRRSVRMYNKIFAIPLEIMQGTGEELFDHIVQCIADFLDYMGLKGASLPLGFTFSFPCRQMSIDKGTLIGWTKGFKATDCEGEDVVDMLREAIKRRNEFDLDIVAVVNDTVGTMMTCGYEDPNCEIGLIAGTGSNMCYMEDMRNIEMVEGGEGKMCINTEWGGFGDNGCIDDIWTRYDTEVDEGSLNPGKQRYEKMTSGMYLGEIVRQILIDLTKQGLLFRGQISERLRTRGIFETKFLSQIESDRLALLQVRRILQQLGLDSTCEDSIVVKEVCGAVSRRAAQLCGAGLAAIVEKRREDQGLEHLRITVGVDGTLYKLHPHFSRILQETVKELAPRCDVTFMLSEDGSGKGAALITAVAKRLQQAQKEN
# [1] = control 3'UTR Renilla luciferase suppression, dose response, counter-screen for Shn3 inhibitor project, cell-based, Clone20-Shn3RL, cherry-picked (AID 624133); type: functional
# [2] = HepG2 cell cytotoxicity, dose response, cytotoxicity control for Shn3 inhibitor project, CellTiter-Glo, cherry-picked (AID 624134); type: functional, cell-based
# [3] = target: Heat shock protein HSP 90-alpha (Homo sapiens, UniProt P07900); type: functional, organism-based
# [4] = Shn3 3'UTR reporter inhibitors, dose response, cell-based, Clone20 osteoblasts, firefly luciferase, cherry-picked (AID 624132); type: functional;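 note: firefly luciferase luminescence from reporter carrying the Shn3 3'UTR in osteoblasts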
# [5] = system: Streptococcus sp. 'group A'; assay: growth inhibition of control SK(-) GAS strain, dose response, counter-screen for streptokinase expression inhibitor project, luminescence, kanamycin, BacTiterGlo, confirmation (AID 1900); type: functional, organism-based
# [6] = inhibitors of intracellular T. cruzi replication, confirmation, NIH3T3 host cells, beta-gal luminescence (AID 2044); type: functional, cell-based;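 note: intracellular parasites grown in NIH/3T3 mouse fibroblasts as host cells; luminescent beta-galactosidase reporter signal from transgenic T. cruzi replicating inside host cells; inhibitors lower the luminescence signal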
# [7] = cytotoxicity toward NIH3T3 fibroblasts, dose response, counter-screen, cell-based, ATP luminescence, mouse fibroblasts (AID 2010); type: functional;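 note: cells exposed to compound for about 90 hours before reading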
# Hexokinase-1 = target: T2, Hexokinase-1 (Homo sapiens, UniProt P19367); assay: hexokinase 1 activators, dose response, selectivity assay for HKDC1 activator project, biochemical (AID 504762); type: functional
# T2 sequence (P19367 whole entry): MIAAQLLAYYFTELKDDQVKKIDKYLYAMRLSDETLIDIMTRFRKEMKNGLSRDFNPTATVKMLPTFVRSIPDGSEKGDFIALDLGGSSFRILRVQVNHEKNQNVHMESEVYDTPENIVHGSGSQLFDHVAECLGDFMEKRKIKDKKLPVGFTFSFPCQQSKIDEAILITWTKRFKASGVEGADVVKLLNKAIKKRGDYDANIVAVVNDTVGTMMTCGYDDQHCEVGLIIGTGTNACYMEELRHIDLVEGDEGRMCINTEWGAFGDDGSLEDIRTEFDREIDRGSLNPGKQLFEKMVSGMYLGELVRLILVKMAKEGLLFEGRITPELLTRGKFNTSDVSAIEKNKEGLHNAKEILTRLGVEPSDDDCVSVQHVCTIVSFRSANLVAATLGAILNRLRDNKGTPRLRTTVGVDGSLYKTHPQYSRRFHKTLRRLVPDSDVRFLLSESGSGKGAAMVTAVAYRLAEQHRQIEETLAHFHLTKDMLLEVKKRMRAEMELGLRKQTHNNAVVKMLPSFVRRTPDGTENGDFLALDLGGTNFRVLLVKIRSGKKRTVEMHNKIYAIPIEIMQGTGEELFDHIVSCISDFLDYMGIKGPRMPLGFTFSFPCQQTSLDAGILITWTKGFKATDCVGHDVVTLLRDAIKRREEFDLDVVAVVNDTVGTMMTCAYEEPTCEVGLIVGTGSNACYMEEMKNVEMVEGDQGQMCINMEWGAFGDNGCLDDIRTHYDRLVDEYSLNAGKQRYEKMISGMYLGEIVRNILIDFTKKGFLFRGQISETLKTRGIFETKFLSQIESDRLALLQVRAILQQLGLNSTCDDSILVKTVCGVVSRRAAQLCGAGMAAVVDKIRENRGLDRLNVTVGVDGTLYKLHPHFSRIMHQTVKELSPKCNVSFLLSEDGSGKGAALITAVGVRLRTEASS
# [8] = Luminescence Cell-Based Dose Response HTS to Identify Inhibitors of 5'UTR Stem-Loop Driven Prion Protein mRNA Translation in H4 Neuroglioblastoma Cells. [Related pubchem assays: 1827 (Project Summary), 1813 (Primary HTS)]; type: functional
# [9] = inhibitors of firefly luciferase expression or activity, dose response, H4 neuroglioma cells, luminescence (AID 1990); type: functional, cell-based
# cells [10] = type: functional, cell-based
# [11] = insulin promoter down-regulators in MIN6 cells, imaging, high-content screening, mouse beta cells (AID 1628); type: functional
# HEK293 = assay: inhibitors of LMP1-driven NF-kB reporter, dose response, cell-based, HEK293, luciferase, cherry-pick (AID 588343); type: functional; conditions: Homo sapiens
# [12] = inhibitors of SNCA 5'UTR-driven reporter translation, confirmation, H4 neuroglioma cells, luminescence (AID 1988); type: functional, cell-based
# [13] = target: T3, Latent membrane protein 1 (Human herpesvirus 4 (strain B95-8), UniProt P03230); assay: TES1-eGFP NF-kB reporter inhibition versus Tet-On dsRED, dose response, selectivity assay for LMP1 NF-kB inhibitor project, imaging, HEK293T, dual-color eGFP/dsRED, cherry-picks (AID 588398); type: functional, cell-based
# T3 sequence (P03230 whole entry): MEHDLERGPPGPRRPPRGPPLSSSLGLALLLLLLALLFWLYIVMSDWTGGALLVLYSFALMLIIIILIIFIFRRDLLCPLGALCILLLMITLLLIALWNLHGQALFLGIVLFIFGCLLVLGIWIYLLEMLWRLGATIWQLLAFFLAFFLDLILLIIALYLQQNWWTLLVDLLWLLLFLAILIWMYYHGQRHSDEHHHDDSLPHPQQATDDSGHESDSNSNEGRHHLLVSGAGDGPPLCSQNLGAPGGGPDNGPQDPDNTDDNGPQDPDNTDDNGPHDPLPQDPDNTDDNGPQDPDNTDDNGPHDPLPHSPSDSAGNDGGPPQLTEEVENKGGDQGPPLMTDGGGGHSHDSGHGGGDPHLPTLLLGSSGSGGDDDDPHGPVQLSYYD
# [14] = cytotoxicity in MIN6 insulinoma cells, dose response, cytotoxicity control, cell-based, mouse insulinoma (AID 2122); type: functional;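 note: confirmatory high-throughput counterscreen run to flag cytotoxic compounds; mouse MIN-6 beta cells carrying an insulin promoter eGFP reporter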
# cells [15] = type: functional, cell-based; remark: listed apart in the source
# HT-1080 = assay: cytotoxicity in HT1080 fibrosarcoma cells, cell-based, fluorescence readout (AID 620); type: functional; conditions: Homo sapiens
# Cytochrome P450 2D6 = Cytochrome P450 2D6 (Homo sapiens, UniProt P10635);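 note: CYP2D6 member of a cytochrome P450 panel assay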
# [16] = target: Luciferin 4-monooxygenase (Photinus pyralis, UniProt P08659); assay: Counter Screen for Luciferase-based Assay Positives. [Related pubchem assays: 620, 618, 411 ]
# A-375 [17] = assay: A375 melanoma cell viability reduction, dose response, counter-screen for MITF modulator project, cherry-pick samples, set 2 (AID 540335); type: functional, cell-based; conditions: Homo sapiens
# A-375 [18] = assay: MITF: Counter assay: A375 proliferation Measured in Cell-Based System Using Plate Reader - 2084-03_Inhibitor_Dose_DryPowder_Activity. [Related pubchem assays (depositor defined):AID488944]; type: functional; conditions: Homo sapiens
# [19] = target: Voltage-gated inwardly rectifying potassium channel KCNH2 (Homo sapiens, UniProt Q12809); conditions: Potency;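 note: confirmatory quantitative high-throughput screen measuring inhibition of hERG channel activity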
# CAAX prenyl protease 2 [20] = target: CAAX prenyl protease 2 (Homo sapiens, UniProt Q9Y256); assay: human Rce1 protease inhibitors, dose response, biochemical, yeast membranes, quenched-peptide fluorescence, cherry-pick (AID 588849)
# CAAX prenyl protease 2 [21] = target: T4, CAAX prenyl protease 2 (Saccharomyces cerevisiae S288c, UniProt Q03530); type: biochemical
# T4 sequence (Q03530 whole entry): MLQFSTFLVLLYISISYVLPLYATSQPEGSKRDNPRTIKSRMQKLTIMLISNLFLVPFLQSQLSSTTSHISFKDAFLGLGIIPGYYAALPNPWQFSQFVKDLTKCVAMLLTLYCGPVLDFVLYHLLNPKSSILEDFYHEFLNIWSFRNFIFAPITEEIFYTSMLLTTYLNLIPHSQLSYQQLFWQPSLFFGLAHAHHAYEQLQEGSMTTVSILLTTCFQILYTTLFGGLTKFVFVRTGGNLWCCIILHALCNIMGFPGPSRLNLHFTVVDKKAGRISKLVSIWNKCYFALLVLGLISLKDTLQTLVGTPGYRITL
# Trypsin = Trypsin (Sus scrofa, UniProt P00761); assay: porcine trypsin inhibitors, dose response, selectivity assay for Rce1 protease inhibitor project, biochemical, quenched peptide fluorescence, cherry-pick (AID 488789)
# INS1 = assay: beta cell apoptosis inhibitors, cytokine rescue, dose response, luminescence, retest (AID 449756); type: functional, cell-based; conditions: Rattus norvegicus;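 note: cell death triggered by IL-1 beta plus TNF-alpha plus IFN-gamma mixture; protective hits raise ATP signal compared with cytokine alone wells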
# Bcl-2-related protein A1 = target: T5, Bcl-2-related protein A1 (Mus musculus, UniProt Q07440); type: functional;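 note: confirmatory dose–response counterscreen on Bfl-1, used to check hits from a UBC13 polyubiquitin inhibitor campaign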
# T5 sequence (Q07440 whole entry): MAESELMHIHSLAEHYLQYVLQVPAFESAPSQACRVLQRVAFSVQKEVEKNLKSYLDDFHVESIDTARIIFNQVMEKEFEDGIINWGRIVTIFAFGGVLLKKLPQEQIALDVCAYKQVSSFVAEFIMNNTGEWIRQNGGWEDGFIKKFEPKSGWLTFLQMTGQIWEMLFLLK
# [22] = target: T6, Ubiquitin-conjugating enzyme E2 N (Homo sapiens, UniProt P61088); type: functional
# T6 sequence (P61088 whole entry): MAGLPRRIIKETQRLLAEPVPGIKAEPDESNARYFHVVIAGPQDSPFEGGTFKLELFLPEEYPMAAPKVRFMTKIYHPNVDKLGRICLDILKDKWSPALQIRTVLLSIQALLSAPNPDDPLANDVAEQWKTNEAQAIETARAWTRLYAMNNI
# [23] = target: T6, Ubiquitin-conjugating enzyme E2 N; type: functional; remark: listed apart in the source
# Chain of Voltage-gated inwardly rectifying potassium channel KCNH2 (Q12809 whole entry): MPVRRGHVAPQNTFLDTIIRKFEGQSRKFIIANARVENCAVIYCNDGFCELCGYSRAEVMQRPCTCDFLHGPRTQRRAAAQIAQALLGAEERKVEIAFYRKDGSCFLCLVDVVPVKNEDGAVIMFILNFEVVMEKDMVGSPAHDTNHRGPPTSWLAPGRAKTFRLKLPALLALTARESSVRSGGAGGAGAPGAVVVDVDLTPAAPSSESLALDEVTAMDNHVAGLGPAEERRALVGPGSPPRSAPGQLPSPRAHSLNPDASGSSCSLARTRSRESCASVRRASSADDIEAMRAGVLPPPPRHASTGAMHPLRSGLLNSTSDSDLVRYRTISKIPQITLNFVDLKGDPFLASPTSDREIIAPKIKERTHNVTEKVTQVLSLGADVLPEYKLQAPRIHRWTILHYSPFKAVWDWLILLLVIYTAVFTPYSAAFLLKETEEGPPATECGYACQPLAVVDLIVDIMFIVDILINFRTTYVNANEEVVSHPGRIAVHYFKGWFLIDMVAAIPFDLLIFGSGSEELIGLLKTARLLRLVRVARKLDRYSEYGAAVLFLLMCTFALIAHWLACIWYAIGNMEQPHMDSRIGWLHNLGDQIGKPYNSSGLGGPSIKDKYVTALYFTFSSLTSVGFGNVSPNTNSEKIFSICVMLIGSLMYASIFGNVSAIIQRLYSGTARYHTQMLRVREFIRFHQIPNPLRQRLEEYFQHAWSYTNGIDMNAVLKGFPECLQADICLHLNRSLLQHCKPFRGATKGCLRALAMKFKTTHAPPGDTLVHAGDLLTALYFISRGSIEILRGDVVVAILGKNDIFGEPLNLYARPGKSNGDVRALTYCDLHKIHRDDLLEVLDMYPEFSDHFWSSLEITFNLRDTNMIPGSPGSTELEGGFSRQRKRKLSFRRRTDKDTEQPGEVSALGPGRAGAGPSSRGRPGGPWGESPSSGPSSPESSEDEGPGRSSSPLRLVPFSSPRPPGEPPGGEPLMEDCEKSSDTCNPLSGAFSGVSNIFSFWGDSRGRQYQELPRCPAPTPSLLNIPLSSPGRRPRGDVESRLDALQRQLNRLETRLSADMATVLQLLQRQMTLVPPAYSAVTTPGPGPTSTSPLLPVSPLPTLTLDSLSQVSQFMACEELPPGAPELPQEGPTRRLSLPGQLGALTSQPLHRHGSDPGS
# Chain of CAAX prenyl protease 2 (Homo sapiens, UniProt Q9Y256) (Q9Y256 whole entry): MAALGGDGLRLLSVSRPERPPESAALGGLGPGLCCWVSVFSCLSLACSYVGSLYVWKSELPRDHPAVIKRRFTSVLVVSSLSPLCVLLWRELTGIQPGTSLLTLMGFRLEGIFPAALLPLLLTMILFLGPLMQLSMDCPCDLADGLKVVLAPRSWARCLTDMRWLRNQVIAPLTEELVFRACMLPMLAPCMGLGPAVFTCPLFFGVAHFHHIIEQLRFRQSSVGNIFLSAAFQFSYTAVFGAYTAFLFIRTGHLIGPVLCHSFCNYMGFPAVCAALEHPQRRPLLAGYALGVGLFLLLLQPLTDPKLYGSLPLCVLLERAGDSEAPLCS
# Chain of Cytochrome P450 2D6 (P10635 whole entry): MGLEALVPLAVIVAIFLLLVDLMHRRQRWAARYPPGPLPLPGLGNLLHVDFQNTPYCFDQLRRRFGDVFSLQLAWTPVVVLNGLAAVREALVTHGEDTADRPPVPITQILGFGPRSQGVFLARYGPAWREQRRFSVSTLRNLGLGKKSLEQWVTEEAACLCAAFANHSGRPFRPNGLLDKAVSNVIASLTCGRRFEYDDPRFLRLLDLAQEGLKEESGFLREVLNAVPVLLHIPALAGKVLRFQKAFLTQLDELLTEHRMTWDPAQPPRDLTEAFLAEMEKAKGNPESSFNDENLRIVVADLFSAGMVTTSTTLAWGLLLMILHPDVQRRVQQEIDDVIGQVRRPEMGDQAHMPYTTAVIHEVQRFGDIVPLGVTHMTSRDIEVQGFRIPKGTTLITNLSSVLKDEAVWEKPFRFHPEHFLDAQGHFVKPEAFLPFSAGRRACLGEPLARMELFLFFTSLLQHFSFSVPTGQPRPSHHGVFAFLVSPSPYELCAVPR
# Chain of Trypsin (P00761 whole entry): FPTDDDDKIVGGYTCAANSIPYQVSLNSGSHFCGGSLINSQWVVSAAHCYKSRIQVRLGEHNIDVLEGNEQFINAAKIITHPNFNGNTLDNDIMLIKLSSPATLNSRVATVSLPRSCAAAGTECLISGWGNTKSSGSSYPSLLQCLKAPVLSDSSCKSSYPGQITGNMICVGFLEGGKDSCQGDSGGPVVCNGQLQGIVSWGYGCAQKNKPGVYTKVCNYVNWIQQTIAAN
# Chain of Luciferin 4-monooxygenase (P08659 whole entry): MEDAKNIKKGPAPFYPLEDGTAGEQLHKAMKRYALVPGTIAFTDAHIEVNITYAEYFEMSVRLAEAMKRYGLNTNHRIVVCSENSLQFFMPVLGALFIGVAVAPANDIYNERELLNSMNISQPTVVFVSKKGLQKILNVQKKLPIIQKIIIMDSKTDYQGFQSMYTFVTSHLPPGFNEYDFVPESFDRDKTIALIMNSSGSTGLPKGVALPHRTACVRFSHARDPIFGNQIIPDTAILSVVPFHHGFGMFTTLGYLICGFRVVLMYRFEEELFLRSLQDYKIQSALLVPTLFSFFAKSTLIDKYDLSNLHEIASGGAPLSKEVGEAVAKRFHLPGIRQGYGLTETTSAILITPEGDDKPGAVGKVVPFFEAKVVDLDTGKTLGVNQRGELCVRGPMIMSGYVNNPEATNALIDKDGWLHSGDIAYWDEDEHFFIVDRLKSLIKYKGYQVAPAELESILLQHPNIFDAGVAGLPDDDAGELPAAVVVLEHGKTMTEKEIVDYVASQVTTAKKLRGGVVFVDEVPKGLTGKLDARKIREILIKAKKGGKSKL
smiles,measurement,setting,value
COc1ccc(/C=C/C(=O)NC(=S)NNC(=O)c2cnccn2)cc1,EC50,Streptococcus,6.88 µM (active)
same,EC50,Hexokinase HKDC1,2.23 µM (active)
same,AC50,[1],2.05 µM (active)
same,AC50,[2],42.4 µM (active)
same,AC50,[3],1.95 µM (active)
same,AC50,[4],15.4 µM (active)
same,EC50,[5],4.07 µM (active)
same,EC50,[6],0.955 µM (active)
same,EC50,[7],15.2 µM (active)
same,EC50,Hexokinase-1,> 80 µM (inactive)
O=C(CCc1ccccc1)NC(c1cccs1)c1cc(Cl)c2cccnc2c1O (configuration not stated),EC50,[8],0.219 µM (active)
same,AC50,[3],16.9 µM (active)
same,EC50,[9],9.65 µM (active)
same,EC50,cells [10],9.12 µM (active)
same,IC50,[11],1.77 µM (active)
same,AC50,HEK293,9.35 µM (active)
same,EC50,[12],4.12 µM (inconclusive)
same,AC50,[13],10.2 µM (active)
same,EC50,[6],0.536 µM (active)
same,IC50,[14],1.78 µM (active)
same,EC50,cells [15],> 350 µM (not active)
same,EC50,[7],1.61 µM (active)
CCNC1=NN=C(c2ccc(C)cc2)CS1,EC50,Hexokinase HKDC1,51.6 µM (inactive)
same,EC50,HT-1080,> 50 µM (not active)
same,AC50,Cytochrome P450 2D6,14.1 µM (inconclusive)
same,EC50,[16],1.03 µM (active)
same,EC50,Hexokinase-1,63.1 µM (inactive)
COc1ccc(C(=O)CCNc2ccc(F)cc2)cc1,AC50,A-375 [17],> 35 µM (active)
same,EC50,cells [10],> 350 µM (not active)
same,AC50,A-375 [18],> 35 µM (active)
CCCCCCCCCCCCCCC[C@H](O)[C@H](N)CO,AC50,[19],35.5 µM (inconclusive)
CCOC(=O)c1cc(-c2ccc(OC)cc2)[nH]n1,AC50,A-375 [17],> 35 µM (active)
same,AC50,A-375 [18],> 35 µM (active)
COc1ccccc1CNC(=O)c1ccccc1N,AC50,CAAX prenyl protease 2 [20],4.31 µM (active)
same,AC50,CAAX prenyl protease 2 [21],6.36 µM (active)
same,AC50,Trypsin,6.1 µM (active)
CC/C=C/C/C=C/C/C=C/CCCCCCCC(=O)OCC,AC50,[19],28.2 µM (inconclusive)
Nc1ccc(Br)cc1-c1nc2ccccc2nc1O,IC50,[11],< 0.25 µM (active)
same,AC50,INS1,0.63 µM (active)
same,IC50,[14],< 0.25 µM (active)
O=C(CCCCCn1c(=O)[nH]c2ccccc2c1=O)NCCc1c[nH]c2ccccc12,IC50,Bcl-2-related protein A1,> 20 µM (inactive)
same,IC50,[22],19.3 µM (active)
same,IC50,[23],18.1 µM (active)
Cc1onc(-c2ccccc2)c1C(=O)Nc1cccc2nsnc12,IC50,Bcl-2-related protein A1,> 20 µM (inactive)
same,IC50,[22],15.6 µM (active)
same,IC50,[23],> 20 µM (inactive)
O=C(COc1ccc2ccc(=O)oc2c1)N1CCC(C(=O)O)(c2ccccc2)CC1,AC50,CAAX prenyl protease 2 [20],98.6 µM (active)
